These molecules were tested against P70S6K (T412E mutant) (Homo sapiens (Human), UniProt P23443, T412E) (assay: P70S6K enzyme assay). Settings: read-out: IC50 p70S6K.
Type: biochemical
Experimental: P70S6K inhibitor compounds are diluted and plated in 96 well plates. […] The reaction is incubated for 90 min at 25° C., before the addition of 10 mM EDTA to stop the reaction. The proportion of substrate and product (phosphorylated) peptide is analysed on a Caliper Life Sciences Lab Chip 3000, using a pressure of −1.4 psi, and upstream and downstream voltages of −3000 and −700 respectively. Product peaks are resolved before substrate peaks on the resulting chromatograms.

Chain of P70S6K (T412E mutant) (P23443 whole entry T412E): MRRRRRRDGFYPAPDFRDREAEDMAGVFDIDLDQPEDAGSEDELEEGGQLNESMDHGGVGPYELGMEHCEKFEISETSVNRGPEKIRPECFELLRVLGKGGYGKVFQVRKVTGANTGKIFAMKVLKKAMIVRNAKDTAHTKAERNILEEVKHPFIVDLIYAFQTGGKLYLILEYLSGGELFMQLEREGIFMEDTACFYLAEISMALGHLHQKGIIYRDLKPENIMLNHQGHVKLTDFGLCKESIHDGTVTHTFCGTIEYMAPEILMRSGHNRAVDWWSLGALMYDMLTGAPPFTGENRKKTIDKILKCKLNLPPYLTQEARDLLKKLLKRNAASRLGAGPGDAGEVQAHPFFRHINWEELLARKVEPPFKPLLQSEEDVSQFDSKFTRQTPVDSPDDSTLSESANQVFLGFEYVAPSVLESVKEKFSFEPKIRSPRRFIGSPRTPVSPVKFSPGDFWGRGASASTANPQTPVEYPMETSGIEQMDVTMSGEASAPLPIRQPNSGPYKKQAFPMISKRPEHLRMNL

Compound	IC50
Cn1cc(-c2ccc(F)c(C(F)(F)F)c2)nc1C1CCN(c2cc(N)ncn2)CC1 [Compound 12, 6-{4-[4-(4-Fluoro-3-trifluoromethyl-phenyl)-1-methyl-1H-imidazol-2-yl]-piperidin-1-yl}-pyrimidin-4-ylamine]	87 nM
Cn1cc(-c2ccc(F)c(C(F)(F)F)c2)nc1C1CCN(c2ncnc(N)c2-c2ccccc2C#N)CC1 [Compound 18, 2-(4-Amino-6-{4-[4-(4-fluoro-3-trifluoromethyl-phenyl)-1-methyl-1H-imidazol-2-yl]-piperidin-1-yl}-pyrimidin-5-yl)-benzonitrile]	250 nM
Cn1cc(-c2ccc(F)c(C(F)(F)F)c2)nc1C1CCN(c2ncnc(N)c2-c2ccccc2F)CC1 [Compound 23, 5-(2-Fluorophenyl)-6-{4-[4-(4-fluoro-3-trifluoromethyl-phenyl)-1-methyl-1H-imidazol-2-yl]-piperidin-1-yl}-pyrimidin-4-ylamine]	3 nM
Cn1cc(-c2ccc(F)c(C(F)(F)F)c2)nc1C1CCN(c2ncnc(N)c2-c2ccc(N3CCNCC3)nc2)CC1 [Compound 26, 6-{4-[4-(4-Fluoro-3-trifluoromethyl-phenyl)-1-methyl-1H-imidazol-2-yl]-piperidin-1-yl}-5-(6-piperazin-1-yl-pyridin-3-yl)-pyrimidin-4-ylamine]	1000 nM
Cn1cc(-c2ccc(F)c(C(F)(F)F)c2)nc1C1CCN(c2ncnc(N)c2-c2ccc(F)nc2)CC1 [Compound 27, 5-(6-Fluoro-pyridin-3-yl)-6-{4-[4-(4-fluoro-3-trifluoromethyl-phenyl)-1-methyl-1H-imidazol-2-yl]-piperidin-1-yl}-pyrimidin-4-ylamine]	3 nM
Cn1cc(-c2ccc(F)c(C(F)(F)F)c2)nc1C1CCN(c2ncnc(N)c2-c2cnc(N)nc2)CC1 [Compound 28, 6′-{4-[4-(4-Fluoro-3-trifluoromethyl-phenyl)-1-methyl-1H-imidazol-2-yl]-piperidin-1-yl}-[5,5]bipyrimidinyl-2,4′-diamine]	4.4 nM
Cn1cc(-c2ccc(F)c(C(F)(F)F)c2)nc1C1CCN(c2ncnc(N)c2-c2ccc(F)c(F)c2)CC1 [Compound 30, 5-(3,4-Difluoro-phenyl)-6-{4-[4-(4-fluoro-3-trifluoromethyl-phenyl)-1-methyl-1H-imidazol-2-yl]-piperidin-1-yl}-pyrimidin-4-ylamine]	6.3 nM
CN(C)c1ncc(-c2c(N)ncnc2N2CCC(c3nc(-c4ccc(F)c(C(F)(F)F)c4)cn3C)CC2)cn1 [Compound 31, 6′-{4-[4-(4-Fluoro-3-trifluoromethyl-phenyl)-1-methyl-1H-imidazol-2-yl]-piperidin-1-yl}-N2,N2-dimethyl-[5,5]bipyrimidinyl-2,4′-diamine]	7.5 nM
Cn1cc(-c2ccc(F)c(C(F)(F)F)c2)nc1C1CCN(c2ncnc(N)c2-c2ccc(CN)cc2)CC1 [Compound 32, 5-(4-Aminomethyl-phenyl)-6-{4-[4-(4-fluoro-3-trifluoromethyl-phenyl)-1-methyl-1H-imidazol-2-yl]-piperidin-1-yl}-pyrimidin-4-ylamine]	4.2 nM
COc1ccc(-c2c(N)ncnc2N2CCC(c3nc(-c4cccc(C(F)(F)F)c4)c[nH]3)CC2)cc1 [Compound 33, 5-(4-Methoxy-phenyl)-6-{4-[4-(3-trifluoromethyl-phenyl)-1H-imidazol-2-yl]-piperidin-1-yl}-pyrimidin-4-ylamine]	2.7 nM
COC(=O)/C=C/c1c(N)ncnc1N1CCC(c2nc(-c3ccc(F)c(C(F)(F)F)c3)cn2C)CC1 [Compound 45, (E)-3-(4-Amino-6-{4-[4-(4-fluoro-3-trifluoromethyl-phenyl)-1-methyl-1H-imidazol-2-yl]-piperidin-1-yl}-pyrimidin-5-yl)-acrylic acid methyl ester]	3.5 nM

The remaining molecules from weak to strong by IC50, led by results:

IC50	Compound
315 nM	FC(F)(F)c1cccc(-c2c[nH]c(C3CCN(c4ccncc4Br)CC3)n2)c1 [Compound 5, 3-bromo-4-(4-{4-[3-(trifluoromethyl)phenyl]-1H-imidazol-2-yl}piperidin-1-yl)pyridine]
190 nM	Cn1cc(-c2ccc(F)c(C(F)(F)F)c2)nc1C1CCN(c2ncnc(N)c2-c2ccc(N3CCOCC3)nc2)CC1 [Compound 25, 6-{4-[4-(4-Fluoro-3-trifluoromethyl-phenyl)-1-methyl-1H-imidazol-2-yl]-piperidin-1-yl}-5-(6-morpholin-4-yl-pyridin-3-yl)-pyrimidin-4-ylamine]
57 nM	Cn1c(-c2ccc(F)c(C(F)(F)F)c2)cnc1C1CCN(c2ncnc(N)c2Br)CC1 [Compound 2, 5-Bromo-6-{4-[5-(4-fluoro-3-trifluoromethyl-phenyl)-1-methyl-1H-imidazol-2-yl]-piperidin-1-yl}-pyrimidin-4-ylamine]
21 nM	Cn1cc(-c2ccc(F)c(C(F)(F)F)c2)nc1C1CCN(c2ncnc(N)c2-c2ccc(C(F)(F)F)cc2)CC1 [Compound 16, 6-{4-[4-(4-Fluoro-3-trifluoromethyl-phenyl)-1-methyl-1H-imidazol-2-yl]-piperidin-1-yl}-5-(4-trifluoromethyl-phenyl)-pyrimidin-4-ylamine]
12 nM	COc1ccc(-c2cncnc2N2CCC(c3nc(-c4cccc(C(F)(F)F)c4)c[nH]3)CC2)cc1 [Compound 34, 5-(4-Methoxy-phenyl)-4-{4-[4-(3-trifluoromethyl-phenyl)-1H-imidazol-2-yl]-piperidin-1-yl}-pyrimidine]
9.8 nM	COc1cccc(-c2c(N)ncnc2N2CCC(c3nc(-c4ccc(F)c(C(F)(F)F)c4)cn3C)CC2)c1 [Compound 29, 6-{4-[4-(4-Fluoro-3-trifluoromethyl-phenyl)-1-methyl-1H-imidazol-2-yl]-piperidin-1-yl}-5-(3-methoxyphenyl)-pyrimidin-4-ylamine]
9 nM	COc1ccc(-c2cnccc2N2CCC(c3nc(-c4cccc(C(F)(F)F)c4)c[nH]3)CC2)cc1 [Compound 35, 3-(4-methoxyphenyl)-4-(4-{4-[3-(trifluoromethyl)phenyl]-1H-imidazol-2-yl}piperidin-1-yl)pyridine]
5.4 nM	Cn1cc(-c2ccc(F)c(C(F)(F)F)c2)nc1C1CCN(c2ncncc2-c2ccc(F)cc2)CC1 [Compound 42, 5-(4-Fluoro-phenyl)-4-{4-[4-(4-fluoro-3-trifluoromethyl-phenyl)-1-methyl-1H-imidazol-2-yl]-piperidin-1-yl}-pyrimidine]
5.3 nM	Cn1cc(-c2ccc(F)c(C(F)(F)F)c2)nc1C1CCN(c2ncnc(N)c2-c2ccccc2Cl)CC1 [Compound 24, 5-(2-Chlorophenyl)-6-{4-[4-(4-fluoro-3-trifluoromethyl-phenyl)-1-methyl-1H-imidazol-2-yl]-piperidin-1-yl}-pyrimidin-4-ylamine]
3.7 nM	Cn1cc(-c2ccc(F)c(C(F)(F)F)c2)nc1C1CCN(c2ncnc(N)c2-c2ccccc2)CC1 [Compound 21, 6-{4-[4-(4-Fluoro-3-trifluoromethyl-phenyl)-1-methyl-1H-imidazol-2-yl]-piperidin-1-yl}-5-phenyl-pyrimidin-4-ylamine]
1.6 nM	Cn1cc(-c2ccc(F)c(C(F)(F)F)c2)nc1C1CCN(c2ncnc(N)c2-c2cccc(F)c2)CC1 [Compound 22, 5-(3-Fluoro-phenyl)-6-{4-[4-(4-fluoro-3-trifluoromethyl-phenyl)-1-methyl-1H-imidazol-2-yl]-piperidin-1-yl}-pyrimidin-4-ylamine]

Source: patent publication US9145392B2, “Imidazole amines as modulators of kinase activity” (Merck Patent GmbH, priority 2011, dated 2015)
